Measurements: patent publication US20190111016A1, “METHODS OF TREATING MUSCLE AND LIVER DISORDERS” (The Regents of the University of California, priority 2016, published 2019)
Counter-ions that a name gives are not always drawn.

Columns and labels:
MS patients [1] = assay: mtDNA copy number (MT-TL1/B2M) by qPCR in PBMCs of MS patients before and after DMF treatment; assay type: in vivo, human; settings: 3 months DMF treatment
Excerpt: (§1) The local Ethics Committee of the University Federico II of Naples, approved the study. Patients were recruited from the Multiple Sclerosis Center of the Federico II University of Naples. All patients gave written informed consent before any activity linked to the study was started. Healthy controls were recruited at the clinic through students and site personnel. The study included 12 MS patients and 11 healthy individuals. Samples were obtained on the day before and after 3 months of continuous DMF treatment. Whole blood was collected in EDTA containing Leucosep® tubes (Greiner bio-one, Frickenhausen, Germany) and frozen at −80° C. until analysis. PBMCs were isolated from 30 mL of EDTA anticoagulated whole blood for RNA extraction.
(§2) cDNA was synthesized from mRNA with iScript cDNA Synthesis Kit (Bio-Rad Laboratories, Hercules, Calif., USA) per manufacturer's instruction in a C1000 Touch Thermal Cycler (Bio-Rad Laboratories, Hercules, Calif., USA). A SensiFAST SYBR No-ROX Kit (Bioline, Taunton, Mass., USA) was used to perform qPCR on the synthesized cDNA in a Roche Lightcycler 480 (Roche Diagnostics, Indianapolis, Ind., USA). The second derivative of the amplification curve was used to determine the cycle threshold, and the data were analyzed by a delta delta CT calculation.
DMF is a FDA approved drug, currently being used to treat adult patients with relapsing form of MS. […]

[2] = tested on: healthy human fibroblast cell line AG09429; assay: mtDNA copy number (mtDNA/nDNA, MT-TL1/B2M) by qPCR in DMF-treated human fibroblasts; assay type: cell-based; settings: 48 hours
Protocol: (§3) The healthy human fibroblast cell line AG09429 (Coriell Institute, Camden, N.J., USA) was maintained at 37° C. in a humidified atmosphere with 5% CO2. DMEM (Corning, Inc., Corning, N.Y., USA) supplemented with 10% fetal bovine serum (JR-Scientific, Woodland, Calif., USA), 1× Penicillin-Streptomycin Solution (Corning, Inc., Corning, N.Y., USA) was used as growth media. Media was changed every two days.
(§4) The human fibroblasts were plated in a 12-well format at 0.1×10^6 cells per well. The cells were incubated with 0.1% DMSO as vehicle control or 3-30 μM of dimethyl fumarate (Sigma-Aldrich, St. Louis, Mo., USA) dissolved in DMSO. Total RNA and DNA were extracted following a 48-hour incubation period.
(§5) Total DNA was extracted from human fibroblast and mouse tissues using DNeasy plus mini kit and DNeasy blood & tissue kit (Qiagen, Valencia, Calif., USA), respectively, following manufacturer's instruction. DNA was quantified by a NanoDrop 2000c Spectrophotometer (Thermo Scientific, Waltham, Mass., USA).
as §2
Healthy human fibroblast cells were treated with 0.1% DMSO (vehicle), 3 μM, 10 μM or 30 μM DMF for 48 hours. Mitochondrial DNA (mtDNA) copy number was analyzed from total DNA isolates by measuring the ratio of mitochondrial to nuclear DNA (mtDNA/nDNA). Primers used to amplify mitochondrial DNA and nuclear DNA by qPCR were mitochondrially-encoded tRNA leucine 1 (MT-TL1) and Beta 2 microglobulin (B2M) respectively. […]

C57BL/6 wild-type mice [3] = assay: mtDNA copy number (mt-Nd1/Cftr) by qPCR in tissues of DMF-dosed mice; assay type: in vivo, mouse; settings: 10 mg/kg DMF i.p. daily, two weeks
Protocol: (§6) C57BL/6 wild-type mice were housed in a vivarium maintained at 22° C.-24° C. and 40%-60% relative humidity with a 12-hour light/12-hour dark cycle. All experimental procedures were approved by the University of California Institutional Animal Care and Use Committee.
(§7) The stock dimethyl fumarate solution was made by dissolving 50 mg/ml of DMF into DMSO. Prior to injection, 0.5 mg/ml of working DMF solution (1:100 dilution) was made by diluting the stock solution into phosphate-buffered saline with 5% Tween-20 and 5% Polyethylene glycol (Sigma-Aldrich, St. Louis, Mo., USA). The mice were injected intraperitoneally every day for 14 days with 10 mg/kg of DMF.
(§8) The mice were euthanized with CO2 followed by cervical dislocation and tissues were immediately removed then flash frozen with liquid nitrogen. Samples were stored in −80° C. until utilized for experiments.
as §5, §2
(§9) To understand whether the DMF-dependent mitochondrial biogenesis is only applicable to the human fibroblast cells, we examined the effects of DMF on wild type C57BL/6 mice. The mice were dosed with 10 mg/kg DMF daily, and skeletal muscle, cerebellum, liver, and heart tissues were collected after two weeks of treatment We utilized qPCR to analyze, mtDNA copy number as ratio of mt-Nd1 to Cftr and mitochondrial complex expression, in these tissues.

HCAR2 = assay: DMF treatment of HCAR2 siRNA knockdown human fibroblasts, qPCR; assay type: cell-based; settings: HCAR2 siRNA 48 hours, then DMF 48 hours
Protocol: (§10) Fibroblast cells were seeded in six-well plates at 0.2×10^6 cells per well and transfected with negative control siRNA (cat. 12935300, Thermo-Fisher, Waltham, Mass., USA), pooled Nrf2 siRNA (cat. HSS107130, HSS181505, HSS181506, Thermo-Fisher, Waltham, Mass., USA) or pooled HCAR2 siRNA (cat. L-006688-02-0005, Dharmacon, Lafayette, Colo., USA) using Lipofectamine RNAiMAX following manufacturer's instruction. After a 48-hour incubation, subsequent drug treatment was conducted with the cells.
as §2, with “A SensiFAST SYBR No-ROX Kit (Bioline, Taunton, Mass., USA) was used to perform qPCR on the synthesized cDNA in a Roche Lightcycler 480 (Roche Diagnostics, Indianapolis, Ind., USA).” left out
(§11) DMF is known to mediate antioxidant cellular defense by Nrf2 activation, and it suppresses inflammatory signaling by binding to and activating HCAR2 (11, 15). To further understand the Nrf2 and HCAR2 dependent effects of DMF on mitochondrial biogenesis, we analyzed changes in mitochondrial proliferation in Nrf2 siRNA knockdown and HCAR2 siRNA knockdown fibroblasts.

MS patients [4] = assay: qPCR of mitochondrial complex subunit expression in PBMCs of MS patients before and after DMF treatment; assay type: in vivo, human
Excerpt: as §1
(§12) Total RNA was extracted from human fibroblast cells and PBMCs from whole blood using RNeasy plus mini kit (Qiagen, Valencia, Calif.) and RIboPure RNA Purification Kit (ThermoFisher Scientific, Waltham, Mass., USA), respectively following manufacturers instruction. RNA quantity and quality was measured by a NanoDrop 2000c Spectrophotometer (Thermo Scientific, Waltham, Mass., USA).
as §2
DMF is a FDA approved drug, currently being used to treat adult patients with relapsing form of MS. To confirm whether DMF is contributing to mitochondrial biogenesis when given to human patients, we used qPCR to study mitochondrial DNA copy number and mitochondrial complex subunit expression in peripheral blood lymphocytes isolated from 11 MS patients at baseline and those same patients 3 months after DMF treatment, and 10 controls. We see significant increase in mitochondrial DNA copy number by 71% (p<0.0075, n=11) in MS patients' treated with DMF for 3 months compared to its own baseline [FIG. 4A].

C57BL/6 wild-type mice [5] = assay: qPCR of mitochondrial complex subunit expression in tissues of DMF-dosed mice; assay type: in vivo, mouse; settings: 10 mg/kg DMF i.p. daily, two weeks
Protocol: as §6, §7, §8, §2, §9

Nrf2 = assay: DMF treatment of Nrf2 siRNA knockdown human fibroblasts, qPCR; assay type: cell-based; settings: then DMF 48 hours
Protocol: as §10, §2, §11

[6] = tested on: healthy human fibroblast cell line AG09429; assay: qPCR of TFAM and mitochondrial complex subunit mRNA in DMF-treated human fibroblasts; assay type: cell-based; settings: for average induction of all the mitochondrial complexes (subunit mRNA) compared to vehicle / expression of mitochondrial biogenesis marker TFAM compared to vehicle control: 48 hours
Protocol: as §3, §4, §12, §2
To elucidate whether increased mitochondrial proliferation affects the abundance of the ETC mitochondrial complexes, qPCR analysis was performed to quantify the mRNA expression of numerous complex subunits: complex 1 subunits MT-ND2 and MT-ND6, complex 2 subunits SDHA and SDHB, […], and complex 5 subunits ATP5B and MT-ATP6 [Table 1]. […] Taken together, human fibroblast cells increased mitochondrial biogenesis measured by mtDNA copy number, mitochondrial proliferator marker TFAM expression and mitochondrial complex expression.

human fibroblasts = assay: Oxygen consumption rate in DMF-treated fibroblasts by Seahorse XF Analyzer; assay type: cell-based; settings: 48 hours
Protocol: Fibroblast cell lines were seeded at a density of 60,000 cells/well in 200 μL of culture medium in a 24-well seahorse tissue culture plate (Seahorse Biosciences, Billerica, Mass., USA). Following a 24-hour incubation, the media was replaced and incubated with 200 μL of 0.1% DMSO or 3 μM, 10 μM and 30 μM dimethyl fumarate in 0.1% DMSO. Prior to reading the oxygen consumption, the medium was changed to unbuffered DMEM without phenol red (Corning, Inc., Corning, N.Y., USA), 10% fetal bovine serum (JR-Scientific, Woodland, Calif., USA), […] glutamax, […] sodium pyruvate, 25 mM glucose (Invitrogen, Waltham, Mass., USA) and was adjusted to pH 7.4. Cells were pre-equilibrated for 20 min; oxygen consumption rate (OCR) and proton production rate (PPR) were recorded with the Seahorse XF-24 after sequential addition of oligomycin (1 ug/ml), FCCP (10 μM) and a combination of antimycin A (1 μM) and rotenone (1 μM) (Sigma-Aldrich, St. Louis, Mo., USA). Total protein in each well was measured and protein concentration was used to normalize the readings.
To elucidate the bioenergetic effects of DMF-dependent increases in mitochondrial copy number and mitochondrial complex expression in human fibroblasts, oxygen consumption rate (OCR) was measured. Human fibroblasts were treated with 0.1% DMSO, 3 μM, 10 μM or 30 μM DMF for 48 hours, and oxygen consumption rate (OCR) was sequentially measured in the presence of oligomycin (complex 5 inhibitor), FCCP (mitochondrial uncoupler), and rotenone/antimycin A (Complex 1/3 inhibitor) [FIG. 2A]. […] Consistent with the idea that DMF increases mitochondrial copy number and mitochondrial complex expression; the effects of DMF are nullified in the presence of oligomycin and rotenone/antimycin A, which inhibits the mitochondrial electron transport chain that is responsible for mitochondrial oxygen consumption.

[7] = MS patients, 3 months DMF treatment

SMILES: COC(=O)/C=C/C(=O)OC [DMF, dimethyl fumarate]
- mitochondrial DNA copy number compared to healthy control group (MS patients [1]): back to healthy control level
- increase in mitochondrial DNA copy number compared to own baseline (MS patients [1]; peripheral blood lymphocytes): 71%
- change in mtDNA copy number compared to vehicle control ([2]; 3 μM DMF): no changes
- increase in mtDNA copy number compared to vehicle control ([2]; 10 μM DMF): 1.51 fold
- increase in mtDNA copy number compared to vehicle control ([2]; 30 μM DMF): 1.75 fold
- increase in mtDNA copy number (C57BL/6 wild-type mice [3]; cerebellum): 1.29 fold
- change in mtDNA copy number (C57BL/6 wild-type mice [3]; heart): no significant change
- increase in mtDNA copy number (C57BL/6 wild-type mice [3]; liver): 1.34 fold
- increase in mtDNA copy number (C57BL/6 wild-type mice [3]; skeletal muscle): 1.45 fold
- inducibility of NRF1, mtDNA copy number and mitochondrial complex 2-5 subunit gene expression, siHCAR2+DMF compared to siCTL+DMF (HCAR2): no significant difference
- inducibility of complex 1 subunit MT-ND2 by DMF when HCAR2 is knocked down (HCAR2): uninducible
- recovery in average mitochondrial gene expression (mt-ND6, mt-CYB, mt-CO2, mt-ATP6) (MS patients [4]; MS patients following 3 months DMF treatment, relative to healthy individuals): 88%
- increase in mt-ATP6 (complex 5) expression normalized to own baseline (MS patients [4]; [7]): 3.74 fold
- increase in mt-CO2 (complex 4) expression normalized to own baseline (MS patients [4]; [7]): 2.34 fold
- increase in mt-CYB (complex 3) expression normalized to own baseline (MS patients [4]; [7]): 2.87 fold
- increase in mt-ND6 (complex 1) expression normalized to own baseline (MS patients [4]; [7]): 3.13 fold
- increase in mt-Atp6 (complex 5) expression (C57BL/6 wild-type mice [5]; cerebellar tissue): 1.82 fold
- increase in mt-Co1 (complex 4) expression (C57BL/6 wild-type mice [5]; cerebellar tissue): 1.92 fold
- induction of mitochondrial complexes (C57BL/6 wild-type mice [5]; liver or heart tissues): more minor
- increase in mt-Atp6 (complex 5) expression (C57BL/6 wild-type mice [5]; skeletal muscle): 1.77 fold
- increase in mt-Co1 (complex 4) expression (C57BL/6 wild-type mice [5]; skeletal muscle): 2.38 fold
- increase in mt-Nd2 expression (C57BL/6 wild-type mice [5]; skeletal muscle): 4.68 fold
- expression of Nrf2, NQO1 and mtDNA copy number, siNrf2+DMF compared to siNrf2 cells (Nrf2; Nrf2 siRNA 48 hours): significantly increases
- induction of TFAM and NRF1 in siNrf2+DMF (Nrf2; Nrf2 siRNA 48 hours): no significant induction
- mitochondrial complex expression in siNrf2+DMF cells (exception: complex 4) (Nrf2; Nrf2 siRNA 48 hours): general reduction
- Nrf2, NQO1, TFAM, NRF1 and mtDNA copy number, siCNT+DMF compared to siCNT (Nrf2; control siRNA 48 hours): significant induction
- average induction of all the mitochondrial complexes (subunit mRNA) compared to vehicle ([6]; 10 μM DMF): 1.42 fold
- expression of mitochondrial biogenesis marker TFAM compared to vehicle control ([6]; 10 μM DMF): increased
- average induction of all the mitochondrial complexes (subunit mRNA) compared to vehicle ([6]; 30 μM DMF): 2.65 fold
- expression of mitochondrial biogenesis marker TFAM compared to vehicle control ([6]; 30 μM DMF): increased
- expression of complex 5 subunits in response to DMF compared to other complex subunits ([6]; DMF 48 hours): less increased
- maximal OCR after FCCP injection, relative increase compared to vehicle control (human fibroblasts; 3 μM DMF): 1.20 fold
- basal OCR, relative increase compared to vehicle control (human fibroblasts; 10 μM DMF): 1.59 fold
- maximal OCR after FCCP injection, relative increase compared to vehicle control (human fibroblasts; 10 μM DMF): 1.35 fold
- basal OCR, relative increase compared to vehicle control (human fibroblasts; 30 μM DMF): 1.66 fold
- maximal OCR after FCCP injection, relative increase compared to vehicle control (human fibroblasts; 30 μM DMF): 1.47 fold
- OCR in the presence of oligomycin and rotenone/antimycin A, DMF groups vs vehicle control (human fibroblasts; 3, 10, 30 μM DMF): not significantly different
